Results reported in US20260206757A1, “METHODS OF CONTROLLING UNDESIRABLE PLANTS WITH PPO HERBICIDES AND COMBINATIONS IN HERBICIDE TOLERANT CROP PLANTS” (BASF AGRO B.V., priority 2022, published 2026).

Experiments:
Type in all cases: in vivo
Digitaria sanguinalis = test: Field experiment, pre-emergence herbicidal activity on bare ground; settings: DIGSA, Preem, Saflufenacil 25, Flumioxazin 71.4 g ai/ha
Method: (§1) Trial Objective: Efficacy of Saflufenacil in tank mix with Flumioxazin applied in pre-emergence of the weeds on bare ground.
(§2) On field test sites, natural weed infestation was treated, pre-emergence of the weeds on bare soil or post-emergence of the weeds.
(§3) For the pre-emergence treatment, the active compounds, suspended or emulsified in water, were applied by means of finely distributing nozzles on bare ground.
(§4) In the following experiments, the herbicidal activity for the individual herbicidal compositions (solo and mixture applications) was assessed up to 36 days after treatment (DAT). The assessments for the damage on undesired weeds caused by the chemical compositions was carried out using a scale from 0 to 100%, compared to the untreated control plants. Here, 0 means no damage and 100 means complete destruction of the plants.
(§5) [formula] • where X=effect in percent using herbicide (A) at an application rate a; • Y=effect in percent using herbicide (B) at an application rate b; • E=expected effect (in %) of herbicide (A)+herbicide (B) at application rates a+b.
(§6) The value E corresponds to the effect (plant damage or injury) which is to be expected if the activity of the individual compounds is additive. If the observed effect is higher than the value E calculated according to the Colby equation, a synergistic effect is present.

Amaranthus palmeri = test: as above; settings: AMAPA, Preem, Saflufenacil 25, Flumioxazin 71.4 g ai/ha
Method: as §1, §2, §3, §4, §5, §6

Ambrosia trifida = test: as above; settings: AMBTR, Preem, Saflufenacil 50, Flumioxazin 71.4 g ai/ha
Method: as §1, §2, §3, §4, §5, §6

Setaria faberi = test: as above; settings: SETFA, Preem, Saflufenacil 50, Flumioxazin 71.4 g ai/ha
Method: as §1, §2, §3, §4, §5, §6

Urochloa texana = test: as above; settings: PANTE
Method: as §1
(§7) Trial Objective: Efficacy of Saflufenacil in tank mix with Sulfentrazone applied in pre-emergence of the weeds on bare ground.
as §2, §3, §4, §5, §6

Eleusine indica = test: as above; settings: ELEIN
Method: as §1, §7, §2, §3, §4, §5, §6

Sorghum halepense = test: Greenhouse experiment, post emergence herbicidal activity; settings: SORHA
Method: (§8) For the post emergence treatment, the plants were first grown to the 2 to 4 leaf stage (GS 12/14). The plants were cultivated due to their individual requirements at 10-25° C. and 20-35° C. The plants were irrigated as required.
(§9) Here, the herbicidal compositions were suspended or emulsified in water as distribution medium and sprayed using finely distributing nozzles. 1% methylated seed oil (MSO) has been added as adjuvant to each of the solo and mixture treatments.
(§10) In the greenhouse experiments, the herbicidal activity for the individual herbicidal compositions (solo and mixture applications) was assessed 20/21 days after treatment (DAT).
(§11) The evaluation for the damage on undesired weeds caused by the chemical compositions was carried out using a scale from 0 to 100%, compared to the untreated control plants. Here, 0 means no damage and 100 means complete destruction of the plants.

Erigeron canadensis = test: as above; settings: ERICA
Method: as §8, §9, §10, §11

Matricaria chamomilla = test: as above; settings: MATCH
Method: as §8, §9, §10, §11

Convolvulus arvensis = test: as above; settings: CONAR
Method: as §8, §9, §10, §11

Hibiscus trionum = test: as above; settings: HIBTR
Method: as §8, §9, §10, §11

Chenopodium album = test: as above; settings: CHEAL
Method: as §8, §9, §10, §11

Sonchus arvensis = test: as above; settings: SONAR
Method: as §8, §9, §10, §11

Papaver rhoeas = test: as above; settings: PAPRH
Method: as §8, §9, §10, §11

Echinochloa crus-galli = test: as above; settings: ECHCG
Method: as §8, §9, §10, §11

Ambrosia artemisiifolia = test: as above; settings: AMBEL
Method: as §8, §9, §10, §11

Abutilon theophrasti = test: as above; settings: ABUTH
Method: as §8, §9, §10, §11

Polygonum aviculare = test: as above; settings: POLAV
Method: as §8, §9, §10, §11

Mercuralis annua = test: as above; settings: MERAN
Method: as §8, §9, §10, §11

Setaria viridis = test: as above; settings: SETVI
Method: as §8, §9, §10, §11

[1] = Preem, Saflufenacil 50, Flumioxazin 71.4 g ai/ha
[2] = Preem, Saflufenacil 25, Flumioxazin 71.4 g ai/ha
[3] = BBCH 12-14, Saflufenacil 4, Flumioxazin 2 g ai/ha
[4] = BBCH 12-14, Saflufenacil 1, Flumioxazin 2 g ai/ha
[5] = BBCH 12-14, Flumioxazin 2, Halauxifen 1 g ai/ha
[6] = BBCH 12-14, Flumioxazin 0.5, Halauxifen 1 g ai/ha
[7] = BBCH 12-14, Flumioxazin 0.5, Imazamox 10 g ai/ha
[8] = BBCH 12-14, Saflufenacil 0.5, Flumioxazin 2 g ai/ha
[9] = BBCH 12-14, Flumioxazin 2, Fomesafen 123 g ai/ha
[10] = BBCH 12-14, Flumioxazin 0.5, Bifenox 168 g ai/ha
[11] = BBCH 12-14, Flumioxazin 0.5, Pyraflufen-ethyl 1.5 g ai/ha
[12] = BBCH 12-14, Flumioxazin 2, Tribenuron-methyl 6 g ai/ha
[13] = preemergence, Saflufenacil 25, Sulfentrazone 210 g ai/ha
[14] = BBCH 12-14, Saflufenacil 0.5, Clethodim 30 g ai/ha
[15] = BBCH 12-14, Saflufenacil 1, Imazamox 10 g ai/ha
[16] = BBCH 12-14, Saflufenacil 1, Bifenox 168 g ai/ha
[17] = BBCH 12-14, Saflufenacil 0.5, Bifenox 168 g ai/ha

With `C#CCN1C(=O)COc2cc(F)c(N3C(=O)C4=C(CCCC4)C3=O)cc21` [Flumioxazin, 2-[7-fluoro-3,4-dihydro-3-oxo-4-(2-propyn-1-yl)-2H-1,4-benzoxazin-6-yl]-4,5,6,7-tetrahydro-1H-isoindole-1,3 (2H)-dione] the “% Herbicidal activity” value (Digitaria sanguinalis) was 88%, the “% Herbicidal activity” value (Amaranthus palmeri) was 85% and the “% Herbicidal activity” value (Ambrosia trifida) was 65%. For the same compound, the “% Herbicidal activity” value (Setaria faberi) was 72%, the “% Herbicidal activity” value (Urochloa texana; [1]) was 35% and the “% Herbicidal activity” value (Eleusine indica; [2]) was 80%. The “% Herbicidal activity” value (Sorghum halepense; [3]) was 50%, the “% Herbicidal activity” value (Erigeron canadensis; BBCH 12-14, Flumioxazin 1, Pyraflufen-ethyl 1.5 g ai/ha) was 60% and the “% Herbicidal activity” value (Erigeron canadensis; [4]) was 75%. For the same compound, the “% Herbicidal activity” value (Matricaria chamomilla; BBCH 12-14, Flumioxazin 1, Fomesafen 123 g ai/ha) was 60%, the “% Herbicidal activity” value (Matricaria chamomilla; [5]) was 65% and the “% Herbicidal activity” value (Matricaria chamomilla; [4]) was 75%. For the same compound, the “% Herbicidal activity” value (Convolvulus arvensis; BBCH 12-14, Flumioxazin 0.5, Fomesafen 123 g ai/ha) was 65%, the “% Herbicidal activity” value (Convolvulus arvensis; [6]) was 65% and the “% Herbicidal activity” value (Convolvulus arvensis; BBCH12-14, Flumioxazin 0.5, Pyraflufen-ethyl 1.5 g ai/ha) was 65%. For the same compound, the “% Herbicidal activity” value (Hibiscus trionum; [7]) was 75%, the “% Herbicidal activity” value (Hibiscus trionum; [8]) was 90% and the “% Herbicidal activity” value (Chenopodium album; BBCH 12-14, Flumioxazin 1, Bifenox 168 g ai/ha) was 70%. For the same compound, the “% Herbicidal activity” value (Chenopodium album; [9]) was 70%, the “% Herbicidal activity” value (Sonchus arvensis; [10]) was 50% and the “% Herbicidal activity” value (Sonchus arvensis; [11]) was 50%. The “% Herbicidal activity” value (Sonchus arvensis; [5]) was 50%, the “% Herbicidal activity” value (Papaver rhoeas; [10]) was 85% and the “% Herbicidal activity” value (Papaver rhoeas; [6]) was 85%. For the same compound, the “% Herbicidal activity” value (Papaver rhoeas; [12]) was 85%, the “% Herbicidal activity” value (Echinochloa crus-galli; [9]) was 55% and the “% Herbicidal activity” value (Ambrosia artemisiifolia; BBCH 12-14, Flumioxazin 4, Imazamox 10 g ai/ha) was 95%. For the same compound, the “% Herbicidal activity” value (Abutilon theophrasti; BBCH 12-14, Flumioxazin 1, Imazamox 10 g ai/ha) was 90%, the “% Herbicidal activity” value (Abutilon theophrasti; BBCH 12-14, Flumioxazin 2, Bifenox 168 g ai/ha) was 98% and the “% Herbicidal activity” value (Polygonum aviculare; [11]) was 45%. For the same compound, the “% Herbicidal activity” value (Polygonum aviculare; BBCH 12-14, Flumioxazin 4, Bifenox 168 g ai/ha) was 95%, the “% Herbicidal activity” value (Polygonum aviculare; [4]) was 80% and the “% Herbicidal activity” value (Mercuralis annua; [7]) was 70%. For the same compound, the “% Herbicidal activity” value (Setaria viridis; [6]) was 30%, the “% Herbicidal activity” value (Setaria viridis; [12]) was 70% and the “% Herbicidal activity” value (Setaria viridis; [4]) was 65%.

`CC(C)N(C)S(=O)(=O)NC(=O)c1cc(-n2c(=O)cc(C(F)(F)F)n(C)c2=O)c(F)cc1Cl` [Saflufenacil, 2-chloro-5-[3,6-dihydro-3-methyl-2,6-dioxo-4-(trifluoromethyl)-1-(2H)pyrimidinyl]-4-fluoro-N-[[methyl (1-methylethyl)amino]-sulfonyl]benzamide] was tested, and the “% Herbicidal activity” value (Digitaria sanguinalis) was 7%, the “% Herbicidal activity” value (Amaranthus palmeri) was 27% and the “% Herbicidal activity” value (Ambrosia trifida) was 67%. The “% Herbicidal activity” value (Setaria faberi) was 37%, the “% Herbicidal activity” value (Urochloa texana; [1]) was 13% and the “% Herbicidal activity” value (Urochloa texana; [13]) was 20%. For the same compound, the “% Herbicidal activity” value (Eleusine indica; [2]) was 3%, the “% Herbicidal activity” value (Eleusine indica; [13]) was 8% and the “% Herbicidal activity” value (Sorghum halepense; BBCH 12-14, Saflufenacil 4, Bifenox 168 g ai/ha) was 60%. For the same compound, the “% Herbicidal activity” value (Sorghum halepense; [3]) was 60%, the “% Herbicidal activity” value (Erigeron canadensis; [4]) was 90% and the “% Herbicidal activity” value (Matricaria chamomilla; [14]) was 45%. For the same compound, the “% Herbicidal activity” value (Matricaria chamomilla; [4]) was 45%, the “% Herbicidal activity” value (Matricaria chamomilla; [15]) was 45% and the “% Herbicidal activity” value (Matricaria chamomilla; BBCH 12-14, Saflufenacil 2, Halauxifen 1 g ai/ha) was 98%. For the same compound, the “% Herbicidal activity” value (Convolvulus arvensis; [14]) was 30%, the “% Herbicidal activity” value (Convolvulus arvensis; BBCH 12-14, Saflufenacil 0.5, Halauxifen 1 g ai/ha) was 30% and the “% Herbicidal activity” value (Convolvulus arvensis; [16]) was 80%. For the same compound, the “% Herbicidal activity” value (Hibiscus trionum; [14]) was 80%, the “% Herbicidal activity” value (Hibiscus trionum; [8]) was 80% and the “% Herbicidal activity” value (Chenopodium album; BBCH 12-14, Saflufenacil 4, Clethodim 30 g ai/ha) was 95%. The “% Herbicidal activity” value (Sonchus arvensis; [14]) was 98%, the “% Herbicidal activity” value (Papaver rhoeas; [17]) was 95% and the “% Herbicidal activity” value (Echinochloa crus-galli; BBCH 12-14, Saflufenacil 4, Fomesafen 123 g ai/ha) was 85%. The “% Herbicidal activity” value (Ambrosia artemisiifolia; [16]) was 80%, the “% Herbicidal activity” value (Ambrosia artemisiifolia; BBCH 12-14, Saflufenacil 1, Clethodim 30 g ai/ha) was 80% and the “% Herbicidal activity” value (Ambrosia artemisiifolia; [15]) was 80%. The “% Herbicidal activity” value (Ambrosia artemisiifolia; BBCH 12-14, Saflufenacil 1, Tribenuron-methyl 6 g ai/ha) was 80%, the “% Herbicidal activity” value (Abutilon theophrasti; [16]) was 90% and the “% Herbicidal activity” value (Abutilon theophrasti; BBCH 12-14, Saflufenacil 2, Fomesafen 1 g ai/ha) was 70%. The “% Herbicidal activity” value (Polygonum aviculare; [14]) was 75%, the “% Herbicidal activity” value (Polygonum aviculare; [4]) was 3% and the “% Herbicidal activity” value (Mercuralis annua; [17]) was 60%. For the same compound, the “% Herbicidal activity” value (Setaria viridis; BBCH 12-14, Saflufenacil 0.5, Imazamox 10 g ai/ha) was 25% and the “% Herbicidal activity” value (Setaria viridis; [4]) was 70%.
